US5625043A, “Anthracyclines with unusually high activity against cells resistant to doxorubicin and its analogs” (Priebe; Waldemar, priority 1995, dated 1997)
In brackets after ≈: the same amount, converted by molar mass. Entries after “also recorded” stand apart in the source; their conditions may differ. Like-named read-outs stand apart in the source and are kept apart here.

How the values were obtained:
[1] = tested on: KB 3-1 cells; experiment: MTT cytotoxicity assay, DOX-sensitive KB 3-1 cells; type: cell-based; settings: Homo sapiens
Procedure: An MTT assay was performed to determine the cytotoxicity of DOX, WP 546, and WP 549 to KB 3-1 (DOX-sensitive) and KB V1 (DOX-resistant) cells. The assay was performed as follows:
(§1) Doxorubicin was obtained from the Hospital Pharmacy (Adriamycin, Adria Laboratories, Columbus, Ohio). KB 3-1 human carcinoma and KB V1 were obtained from Dr. Michael M. Gottesman at the National Cancer Institute. KB V1 cells have the MDR phenotype and express glycoprotein P-170 in their membrane (Akiyama et al., Somat. Cell. Mol. Genet., 11:117, 1985; Shen et al., J. Biol. Chem., 261:7762, 1986.). KB 3-1 and KB V1 cells were grown in monolayers in Dulbecco's modified Eagle's medium containing 10% fetal bovine serum. For KB V1 cells, vinblastine was added to the culture medium (final concentration 0.5 μg/ml).
(§2) In vitro drug cytotoxicites against KB 3-1 and KB V1 cells were assessed by using the MTT reduction assay, as previously reported (Green et al., J. Immunol. Methods., 70:257, 1984). The MTT dye was obtained from Sigma Chemical Company, St. Louis, Mo. Cells were plated in 96-well microassay culture plates (10^4 cells/well) and grown for 24 h at 37° C. in a 5% CO2 incubator. Drugs were then added to the wells to achieve a final drug concentration ranging from 0.1 to 50 μg/ml (eight wells were used for each different concentration). The same volume of 0.9% NaCl solution in water with 1% DMSO was added to control wells. Wells containing culture medium alone without cells were used as blanks. The plates were incubated at 37° C. in a 5% CO2 incubator for 1 h (KB cells). When incubation was complete, 15 μl of stock solution of MTT dye in 0.9% NaCl solution in water was added to each well to achieve a final dye concentration of 0.5 mg/ml. […] The optical density of each well was then measured with a microplate spectrophotometer at a wavelength of 600 nm. The percent cell viability was calculated by the following equation: [formula]
(§3) The percent cell viability values obtained were plotted against the drug concentrations used, and the ID50 was calculated from the curve. […]

[2] = tested on: KB V1 cells; experiment: MTT cytotoxicity assay, DOX-resistant (MDR) KB V1 cells; type: cell-based, human; settings: for IC50: Homo sapiens; for RI (ID50 KB V1/ID50 KB 3-1): KB V1 versus KB 3-1; for cytotoxicity (in words): KB V1 (MDR, DOX-resistant)
Procedure: The assay was performed as follows:
as §1, with “KB V1 cells have the MDR phenotype and express glycoprotein P-170 in their membrane (Akiyama et al., Somat. Cell. Mol. Genet., 11:117, 1985; Shen et al., J. Biol. Chem., 261:7762, 1986.).” left out
The MTT dye was obtained from Sigma Chemical Company, St. Louis, Mo. Cells were plated in 96-well microassay culture plates (10^4 cells/well) and grown for 24 h at 37° C. in a 5% CO2 incubator. Drugs were then added to the wells to achieve a final drug concentration ranging from 0.1 to 50 μg/ml (eight wells were used for each different concentration). The same volume of 0.9% NaCl solution in water with 1% DMSO was added to control wells. Wells containing culture medium alone without cells were used as blanks. The plates were incubated at 37° C. in a 5% CO2 incubator for 1 h (KB cells). When incubation was complete, 15 μl of stock solution of MTT dye in 0.9% NaCl solution in water was added to each well to achieve a final dye concentration of 0.5 mg/ml. The plate was incubated at 37° C. in a 5% CO2 incubator for 4 h. […] Complete solubilization was achieved by placing the plate in a mechanical shaker for 30 minutes at room temperature. The optical density of each well was then measured with a microplate spectrophotometer at a wavelength of 600 nm. The percent cell viability was calculated by the following equation: [formula]
(§4) The percent cell viability values obtained were plotted against the drug concentrations used, and the ID50 was calculated from the curve. Experiments were repeated at least three time.

[3] = tested on: J774.2 cells; experiment: Cytotoxicity against J774.2 cells; type: cell-based, murine; settings: for IC50: Mus musculus
[4] = tested on: J7/A300 cells; experiment: Cytotoxicity against AD 198-resistant J7/A300 cells; type: cell-based, murine; settings: for RI J7/A300: J7/A300 versus J774.2; for IC50: Mus musculus; for cytotoxicity (in words): J7/A300, AD 198-resistant
[5] = tested on: J7/40V cells; experiment: Cytotoxicity against vinblastine-resistant J7/40V cells; type: cell-based, murine; settings: for RI J7/40V: J7/40V versus J774.2; for IC50: Mus musculus; for cytotoxicity (in words): vinblastine-resistant
[6] = versus same dose by bolus injections; cited from earlier work
[7] = cited from earlier work
[8] = tested on: P388 (S) cells; experiment: MTT cytotoxicity assay, AD 198-sensitive P388 (S) cells; type: cell-based, murine; settings: Mus musculus, ± S.E., read-out: ID50 (the source's name)
Procedure: as §2, with “mg/ml. The plate was incubated at 37° C. in a 5% CO2 incubator for 4 h.” for “mg/ml.”
as §3

[9] = tested on: P388 (R) cells; experiment: MTT cytotoxicity assay, AD 198-resistant P388 (R) cells; type: cell-based, murine; settings: for IC50: Mus musculus, P388 (R), ± S.E., read-out: ID50 (the source's name); for RI: P388 (R) versus P388 (S); for cytotoxicity (in words): P388 AD 198-resistant
Procedure: In vitro drug cytotoxicites against KB 3-1 and KB V1 cells were assessed by using the MTT reduction assay, as previously reported (Green et al., J. Immunol. Methods., 70:257, 1984). The MTT dye was obtained from Sigma Chemical Company, St. Louis, Mo. Cells were plated in 96-well microassay culture plates (10^4 cells/well) and grown for 24 h at 37° C. in a 5% CO2 incubator. Drugs were then added to the wells to achieve a final drug concentration ranging from 0.1 to 50 μg/ml (eight wells were used for each different concentration). The same volume of 0.9% NaCl solution in water with 1% DMSO was added to control wells. Wells containing culture medium alone without cells were used as blanks. The plates were incubated at 37° C. in a 5% CO2 incubator for 1 h (KB cells). When incubation was complete, 15 μl of stock solution of MTT dye in 0.9% NaCl solution in water was added to each well to achieve a final dye concentration of 0.5 mg/ml. The plate was incubated at 37° C. in a 5% CO2 incubator for 4 h. Subsequently, 100 μl of medium was removed from each well from the upper ]K<id,KD layer, and 100 μl of DMSO was added to solubilize the MTT formazan. Complete solubilization was achieved by placing the plate in a mechanical shaker for 30 minutes at room temperature. The optical density of each well was then measured with a microplate spectrophotometer at a wavelength of 600 nm. The percent cell viability was calculated by the following equation: [formula]
as §4
An MTT assay to determine the cytotoxicity of WP 546 and WP 549 to AD 198-resistant {P 388 (R)} and AD 198-sensitive {P388 (S)} cells was performed in a manner similar to that described above.

[10] = tested on: tumor cells resistant to doxorubicin, AD 198, and vinblastine; experiment: Cytotoxicity against drug-resistant tumor cells (general statement); type: cell-based
[11] = KB 3-1 (S), MTT, 1 h drug incubation, read-out: ID50 (the source's name)
[12] = KB V1 (R), MTT, 1 h drug incubation, read-out: ID50 (the source's name)
[13] = J774.2, read-out: ID50 (the source's name)
[14] = J7/A300, read-out: ID50 (the source's name)
[15] = J7/40V, read-out: ID50 (the source's name)

Structure (SMILES) | RI (ID50 KB V1/ID50 KB 3-1) [2] | RI J7/A300 [4] | RI J7/40V [5] | IC50 [1, 11] [µg/mL] | IC50 [2, 12] [µg/mL] | cytotoxicity (in words) [2] | IC50 [8] [nM] | IC50 [9] [nM] | RI [9] | cytotoxicity (in words) [9] | cytotoxicity (in words) ([3]; J774.2) | IC50 [3, 13] [nM] | cytotoxicity (in words) [4] | IC50 [4, 14] [nM] | cytotoxicity (in words) ([5]; J7/40V) | IC50 [5, 15] [nM] | cytotoxicity (in words) [10] | also measured
COc1cccc2c1C(=O)c1c(O)c3c(c(O)c1C2=O)C[C@@](O)(C(=O)CO)C[C@@H]3O[C@H]1C[C@H](N)[C@H](O)[C@H](C)O1 [Doxorubicin, doxorubicin] | 58.2 | 24 | 31 | – | – | – | – | – | – | – | – | – | – | – | – | – | – | IC50 ([1]; KB 3-1, 1 h, read-out: ID50): 1.1 µg/mL (≈ 2.02 µM); IC50 ([2]; KB-V1, 1 h, read-out: ID50): 64 µg/mL (≈ 118 µM); IC50 ([3]; J774.2, read-out: ID50): 24 nM; IC50 ([4]; read-out: ID50): 586 nM; IC50 ([5]; read-out: ID50): 755 nM; efficacy of 96-hr continuous infusion [6]: as effective as; toxicity of 96-hr continuous infusion [6]: much less toxic; adverse systemic effects ([7]; in vivo): acute myelosuppression, cumulative cardiotoxicity, and gastrointestinal toxicity; cardiomyopathy ([7]; related to total dose): unusual cardiomyopathy, the occurrence of which is related to the total dose of the drug; it is often irreversible
COc1cccc2c1C(=O)c1c(O)c3c(c(O)c1C2=O)C[C@@](O)(C(=O)CO)C[C@@H]3O[C@H]1C[C@H](OCc2ccccc2)[C@H](O)[C@H](C)O1 [WP 546, 7-O-(3-O-benzyl-2,6-dideoxy-α-L-lyxo-hexopyranosyl)adriamycinone] | 0.9 | 2.2 | 2.2 | 4.6 (≈ 7.25 µM) | 4.1 (≈ 6.46 µM) | unexpectedly more cytotoxic against MDR cells than against parent cells; also recorded: ability to kill DOX-resistant and vinblastine resistant cells; also recorded: shown to kill KB V1 cells | 920 ± 360 | 690 ± 230 | 0.8 | more cytotoxic towards cells selected for the resistance than that of a wild type; also recorded: demonstrated cytotoxicity | shown to kill KB V1 cells and J774.2 cells | 1100 | demonstrated cytotoxicity | 2430 | shown to have cytotoxic effects | 2350 | surprisingly broad cytotoxicity; also recorded: unexpected cytotoxic activity; also recorded: very high cytotoxicity | cytotoxicity (in words) ([10]; listed as 3'-O-benzyl-doxorubicin): surprisingly similar in DOX-sensitive and DOX-resistant cell lines
CCCCC(=O)OCC(=O)[C@]1(O)Cc2c(O)c3c(c(O)c2[C@@H](O[C@H]2C[C@H](OCc4ccccc4)[C@H](O)[C@H](C)O2)C1)C(=O)c1c(OC)cccc1C3=O [WP 549, 7-O-(3-O-benzyl-2,6-dideoxy-α-L-lyxo-hexopyranosyl)-14-O-valeroyl-adriamycinone] | 0.5 | 1.9 | 2.3 | 8.9 (≈ 12.4 µM) | 4.7 (≈ 6.54 µM) | unexpectedly more cytotoxic against MDR cells than against parent cells; also recorded: ability to kill DOX-resistant and vinblastine resistant cells; also recorded: shown to kill KB V1 cells | 1410 ± 230 | 730 ± 80 | 0.5 | more cytotoxic towards cells selected for the resistance than that of a wild type; also recorded: demonstrated cytotoxicity | shown to kill KB V1 cells and J774.2 cells | 1430 | demonstrated cytotoxicity | 2770 | shown to have cytotoxic effects | 3150 | surprisingly broad cytotoxicity; also recorded: unexpected cytotoxic activity; also recorded: very high cytotoxicity | –
COc1cccc2c1C(=O)c1c(O)c3c(c(O)c1C2=O)C[C@@](O)(C(C)=O)C[C@@H]3O[C@H]1C[C@H](N)[C@H](O)[C@H](C)O1 [daunorubicin] | – | – | – | – | – | – | – | – | – | – | – | – | – | – | – | – | – | cardiomyopathy ([7]; in vivo): unusual cardiomyopathy, the occurrence of which is related to the total dose of the drug; it is often irreversible
CC[C@]1(O)C[C@@H]2CN(CCc3c([nH]c4ccccc34)[C@@](C(=O)OC)(c3cc4c(cc3OC)N(C)[C@H]3[C@@](O)(C(=O)OC)[C@H](OC(C)=O)[C@]5(CC)C=CCN6CC[C@]43[C@@H]65)C2)C1 [vinblastine, reference compound] | – | – | – | – | – | – | – | – | – | – | – | – | – | – | – | – | – | resistance of cell line to the selecting drug ([5]; J7/40V selected for resistance to vinblastine): 120 -fold
